According to patent publication US12708630B2, “Combined therapy of 4′-thio-5-aza-2′-deoxycytidine and Venetoclax” (PINOTBIO, INC., priority 2021, dated 2026):

Columns and labels:
Assay in all cases: drug activity profiling cytotoxicity
Format in all cases: cell-based
BC-1 = conditions: Homo sapiens, BC1; BC-1 cell line, B-cell lymphoma; read-out: Aza-T-dCyd IC50
In short: (§1)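 First, 200 cell lines were profiled for sensitivity to Aza-T-dCyd by cytotoxicity; then responses were analysed together with genomic features.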

Detroit 562 = conditions: Homo sapiens; Detroit 562 cell line, Head and Neck; read-out: Aza-T-dCyd IC50
In short: as §1

SK-NEP-1 = conditions: Homo sapiens; SK-NEP-1 cell line, Kidney; read-out: Aza-T-dCyd IC50
In short: as §1

Hs 746T = conditions: Homo sapiens, Hs746T; Hs 746T cell line, Stomach; read-out: Aza-T-dCyd IC50
In short: as §1

SK-MEL-28 = conditions: Homo sapiens; SK-MEL-28 cell line, Skin (Melanoma); read-out: Aza-T-dCyd IC50
In short: as §1

SW962 = conditions: Homo sapiens, SW 962; SW962 cell line, Female GU (Vulva); read-out: Aza-T-dCyd IC50
In short: as §1

SJRH30 = conditions: Homo sapiens; SJRH30 cell line, Sarcoma; read-out: Aza-T-dCyd IC50
In short: as §1

EB2 = conditions: Homo sapiens; EB2 cell line, Burkitt's lymphoma; read-out: Aza-T-dCyd IC50
In short: as §1

SU.86.86 = conditions: Homo sapiens; SU.86.86 cell line, Pancreas; read-out: Aza-T-dCyd IC50
In short: as §1

SW982 = conditions: Homo sapiens; SW982 cell line, Sarcoma; read-out: Aza-T-dCyd IC50
In short: as §1

639-V = conditions: Homo sapiens; 639-V cell line, Bladder; read-out: Aza-T-dCyd IC50
In short: as §1

SW620 = conditions: Homo sapiens, SW-620; SW620 cell line, Colon; read-out: Aza-T-dCyd IC50
In short: as §1

BT20 = conditions: Homo sapiens, BT-20; BT20 cell line, Breast; read-out: Aza-T-dCyd IC50
In short: as §1

JAR = JAR cell line, Placenta; read-out: Aza-T-dCyd IC50
In short: as §1

DB = conditions: Homo sapiens; DB cell line, B-cell lymphoma; read-out: Aza-T-dCyd IC50
In short: as §1

NCI-H747 = conditions: Homo sapiens; NCI-H747 cell line, Colon; read-out: Aza-T-dCyd IC50
In short: as §1

Hs 688(A).T = Hs 688(A).T cell line, Skin (Melanoma); read-out: Aza-T-dCyd IC50
In short: as §1

DLD-1 = conditions: Homo sapiens; DLD-1 cell line, Colon; read-out: Aza-T-dCyd IC50
In short: as §1

NCI-H295R = conditions: Homo sapiens; NCI-H295R cell line, Endocrine (Adrenal gland); read-out: Aza-T-dCyd IC50
In short: as §1

SW403 = conditions: Homo sapiens, SW-403; SW403 cell line, Colon; read-out: Aza-T-dCyd IC50
In short: as §1

MOLT-4 = conditions: Homo sapiens; MOLT-4 cell line, ALL; read-out: Aza-T-dCyd IC50
In short: as §1

EFM-19 = conditions: Homo sapiens; EFM-19 cell line, Breast; read-out: Aza-T-dCyd IC50
In short: as §1

A498 = conditions: Homo sapiens; A498 cell line, Kidney; read-out: Aza-T-dCyd IC50
In short: as §1

HPAF-II = conditions: Homo sapiens; HPAF-II cell line, Pancreas; read-out: Aza-T-dCyd IC50
In short: as §1

NALM-6 = conditions: Homo sapiens; NALM-6 cell line, ALL; read-out: Aza-T-dCyd IC50
In short: as §1

BE(2)C = conditions: Homo sapiens; BE(2)C cell line, CNS (Neuroblastoma); read-out: Aza-T-dCyd IC50
In short: as §1

HepG2 = conditions: Homo sapiens; HepG2 cell line, Liver; read-out: Aza-T-dCyd IC50
In short: as §1

DK-MG = DK-MG cell line, CNS (Glioma); read-out: Aza-T-dCyd IC50
In short: as §1

SKO-007 = SKO-007 cell line, B-cell myeloma; read-out: Aza-T-dCyd IC50
In short: as §1

DOHH-2 = conditions: Homo sapiens; DOHH-2 cell line, B-cell lymphoma; read-out: Aza-T-dCyd IC50
In short: as §1

ZR-75-1 = conditions: Homo sapiens; ZR-75-1 cell line, Breast; read-out: Aza-T-dCyd IC50
In short: as §1

What does the source list for `Nc1ncn([C@H]2CC(O)[C@@H](CO)S2)c(=O)n1` (stereo partly shown) [Aza-T-dCyd, 4′-thio-5-aza-2′-deoxycytidine]?
IC50 (BC-1): 338 nM; IC50 (Detroit 562): 81.1 nM; IC50 (SK-NEP-1): > 10000 nM; IC50 (Hs 746T): 666 nM; IC50 (SK-MEL-28): 2500 nM; IC50 (SW962): > 10000 nM; IC50 (SJRH30): 291 nM; IC50 (EB2): 8190 nM; IC50 (SU.86.86): 508 nM; IC50 (SW982): 171 nM; IC50 (639-V): 1570 nM; IC50 (SW620): 234 nM; IC50 (BT20): > 10000 nM; IC50 (JAR): 296 nM; IC50 (DB): 135 nM; IC50 (NCI-H747): 319 nM; IC50 (Hs 688(A).T): > 10000 nM; IC50 (DLD-1): 221 nM; IC50 (NCI-H295R): > 10000 nM; IC50 (SW403): 619 nM; IC50 (MOLT-4): 35 nM; IC50 (EFM-19): 3950 nM; IC50 (A498): 73.8 nM; IC50 (HPAF-II): 737 nM; IC50 (NALM-6): 33.8 nM; IC50 (BE(2)C): 373 nM; IC50 (HepG2): 892 nM; IC50 (DK-MG): > 10000 nM; IC50 (SKO-007): 4290 nM; IC50 (DOHH-2): 609 nM; IC50 (ZR-75-1): > 10000 nM
